# Where two headings read alike, the source gives them in different places.
# Molecular target: T1, BACE1 (Homo sapiens, UniProt P56817)
# T1 construct: purchased Invitrogen P2985
# Assay: BACE1 fluorescence resonance energy transfer (FRET) based enzymatic inhibition assay
# Format: biochemical
# Conditions: for inhibition ratio: ligand concentration of 100 μM; for Inhibition ratio (100 μM): compound concentration 100 μM, Table 1; for inhibition at 100 µM: compound concentration 100 µM
# Protocol: 3.3. Fluorescence Resonance Energy Transfer (FRET) Based Enzymatic Assay
# The BACE1 fluorescence resonance energy transfer assay kit was purchased from Invitrogen (Carlsbad, CA, USA, cat. P2985). BACE1 activity assays were carried out following the manufacturer’s protocol. The enzyme, substrate, and compounds were diluted in a reaction buffer (50 mM sodium acetate, pH 4.5) to make 3× working solutions. The assay was carried out in a black 384-well microplate with a final volume of 30 μL which contains each 10 μL of 3× substrate, enzyme, and compound stocks, respectively. The final concentration of DMSO is less than 3% (v/v). The reaction mixture was incubated at 37 °C for 90 min with oscillation. Then, 10 μL of a stop solution (2.5 M sodium acetate) was added to stop the reaction. Finally, the fluorescent intensity of the enzymatic product was measured at Ex/Em = 535 nm/585 nm on a BioTek SYNERGY4 reader (BioTek, Winooski, VT, USA). Triplicate was run for each assay. IC50 values were calculated from the concentration–inhibition curves by nonlinear regression analysis. Eight concentrations were tested for each compound to produce the concentration–inhibition curve.
# T1 sequence (P56817 46-501): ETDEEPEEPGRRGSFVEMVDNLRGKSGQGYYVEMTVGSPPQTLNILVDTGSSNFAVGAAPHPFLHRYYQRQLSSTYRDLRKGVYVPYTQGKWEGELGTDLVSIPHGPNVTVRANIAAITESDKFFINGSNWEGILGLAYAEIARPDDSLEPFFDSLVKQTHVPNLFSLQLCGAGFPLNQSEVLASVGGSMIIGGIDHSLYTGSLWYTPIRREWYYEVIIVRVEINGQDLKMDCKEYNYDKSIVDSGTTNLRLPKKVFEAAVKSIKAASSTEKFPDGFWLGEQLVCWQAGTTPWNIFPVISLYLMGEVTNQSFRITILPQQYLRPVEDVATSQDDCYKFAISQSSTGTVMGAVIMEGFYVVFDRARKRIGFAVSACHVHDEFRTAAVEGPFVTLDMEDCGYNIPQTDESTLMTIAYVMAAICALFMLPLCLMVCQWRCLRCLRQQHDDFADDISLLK
SMILES,Inhibition ratio (100 μM),inhibition at 100 µM (Table 2),also measured
"N=C(N)NCCn1ccc2ccccc21 [Compound 4, 1-(2-(1H-indol-1-yl)ethyl)guanidine]",–,–,IC50: > 100000 nM; inhibition ratio: about 42%
"N=C(NCc1cccc(I)c1)NC(=O)Cn1ccc2ccccc21 [Compound 13, 2-(1H-Indol-1-yl)-N-(N-(3-iodobenzyl)carbamimidoyl)acetamide]",85.24%,–,–
"COc1cccc(CNC(=N)NC(=O)Cn2ccc3ccccc32)c1 [Compound 14, 2-(1H-Indol-1-yl)-N-(N-(3-methoxybenzyl)carbamimidoyl)acetamide]",58.75%,–,–
"N=C(NCc1cccc(OC(F)(F)F)c1)NC(=O)Cn1ccc2ccccc21 [Compound 16, 2-(1H-Indol-1-yl)-N-(N-(3-(trifluoromethoxy)benzyl)carbamimidoyl)acetamide]",66.51%,–,–
"N=C(NCc1cc(Cl)cc(Cl)c1)NC(=O)Cn1ccc2ccccc21 [Compound 17, N-(N-(3,5-Dichlorobenzyl)carbamimidoyl)-2-(1H-indol-1-yl)acetamide]",100%,–,IC50: 8750 ± 1070 nM
"CC(=O)Nc1ccc(CNC(=N)NC(=O)Cn2ccc3ccccc32)cc1 [Compound 18, N-(N-(4-Acetamidobenzyl)carbamimidoyl)-2-(1H-indol-1-yl)acetamide]",35.3%,–,–
"CCNc1c(Cl)cc(CNC(=N)NC(=O)Cn2ccc3ccccc32)cc1Cl [Compound 20, N-(N-(3,5-Dichloro-4-(ethylamino)benzyl)carbamimidoyl)-2-(1H-indol-1-yl)acetamide]",46.8%,–,–
"CC(=O)Nc1c(Cl)cc(CNC(=N)NC(=O)Cn2ccc3cc(C#N)ccc32)cc1Cl [Compound 24, N-(N-(4-Acetamido-3,5-dichlorobenzyl)carbamimidoyl)-2-(5-cyano-1H-indol-1-yl)acetamide]",–,99.5%,IC50 (Table 2): 57 ± 4 nM
"COc1ccc2ccn(CC(=O)NC(=N)NCc3cc(Cl)c(NC(C)=O)c(Cl)c3)c2c1 [Compound 27, N-(N-(4-Acetamido-3,5-dichlorobenzyl)carbamimidoyl)-2-(6-methoxy-1H-indol-1-yl)acetamide]",–,103%,IC50 (Table 2): 224 ± 33 nM
CC(=O)Nc1c(Cl)cc(CNC(N)=NC(=O)Cn2ccc3ccc(CN(C)S(C)(=O)=O)cc32)cc1Cl [Compound 28],–,100%,IC50 (Table 2): 840 ± 101 nM

# Further lines, with some results ahead:
Inhibition ratio (100 μM),inhibition at 100 µM (Table 2),SMILES,also measured
77.00%,–,"N=C(N)NC(=O)Cn1ccc2ccccc21 [Compound 5, N-Carbamimidoyl-2-(1H-indol-1-yl)acetamide]",inhibition ratio: 77%
40.69%,–,N=C(NCc1ccccc1)NC(=O)Cn1ccc2ccccc21 [Compound 12],–
52.38%,–,"N=C(NCc1cc(F)cc(F)c1)NC(=O)Cn1ccc2ccccc21 [Compound 15, N-(N-(3,5-Difluorobenzyl)carbamimidoyl)-2-(1H-indol-1-yl)acetamide]",–
100%,100%,"CC(=O)Nc1c(Cl)cc(CNC(=N)NC(=O)Cn2ccc3ccccc32)cc1Cl [Compound 19, N-(N-(4-Acetamido-3,5-dichlorobenzyl)carbamimidoyl)-2-(1H-indol-1-yl)acetamide]",IC50: 1010 ± 91 nM
92.2%,–,"CC(C)C(=O)Nc1c(Cl)cc(CNC(=N)NC(=O)Cn2ccc3ccccc32)cc1Cl [Compound 21, N-(4-((3-(2-(1H-Indol-1-yl)acetyl)guanidino)methyl)-2,6-dichlorophenyl)isobutyramide]",IC50: 1720 ± 210 nM
–,109%,"CC(=O)Nc1c(Cl)cc(CNC(=N)NC(=O)Cn2ccc3cc(Br)ccc32)cc1Cl [Compound 22, N-(N-(4-Acetamido-3,5-dichlorobenzyl)carbamimidoyl)-2-(5-bromo-1H-indol-1-yl)acetamide]",IC50 (Table 2): 106 ± 13 nM
–,100%,"CC(=O)Nc1c(Cl)cc(CNC(=N)NC(=O)Cn2ccc3ccc(Br)cc32)cc1Cl [Compound 23, N-(N-(4-Acetamido-3,5-dichlorobenzyl)carbamimidoyl)-2-(6-bromo-1H-indol-1-yl)acetamide]",IC50 (Table 2): 79 ± 8 nM

# — PMC6270065, “Virtual Screening and Structure-Based Discovery of Indole Acylguanidines as Potent β-secretase (BACE1) Inhibitors” (Molecules, 2013)
